From ChEMBL document CHEMBL1201862, “PubChem BioAssay data set” (2004)
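Interpolation was linear, between the two tested concentrations surrounding the appropriate level; five concentrations were tested over 48 hours in 96-well plates. GI50: concentration for 50% inhibition of growth.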 Activity calls are given as the source filed them. Cut-off read from the data, not from the text of the source: active = GI50 up to about 1.1 µM and inactive = higher.

How the values were obtained:
Test in all cases: inhibition of tumour cell growth, NCI panel, 48 h
[1] = test system: 786-0
[2] = test system: A498
[3] = test system: A549
[4] = test system: ACHN
[5] = test system: BT-549
[6] = test system: CAKI-1
[7] = test system: CCRF-CEM
[8] = test system: COLO 205
[9] = test system: DU-145
[10] = test system: EKVX
[11] = test system: HCC 2998
[12] = test system: HCT-116
[13] = test system: HCT-15
[14] = test system: HL-60
[15] = test system: HOP-62
[16] = test system: HOP-92
[17] = test system: HT-29
[18] = test system: Hs-578T
[19] = test system: IGROV-1
[20] = test system: K562
[21] = test system: KM12
[22] = test system: LOX IMVI
[23] = test system: M14
[24] = test system: MCF7
[25] = test system: MDA-MB-231
[26] = test system: MDA-MB-435
[27] = test system: MDA-N
[28] = test system: MOLT-4
[29] = test system: Malme-3M
[30] = test system: NCI-H226
[31] = test system: NCI-H23
[32] = test system: NCI-H460
[33] = test system: NCI-H522
[34] = test system: NCI/ADR-RES
[35] = test system: OVCAR-3
[36] = test system: OVCAR-4
[37] = test system: OVCAR-5
[38] = test system: OVCAR-8
[39] = test system: PC-3
[40] = test system: RPMI-8226
[41] = test system: RXF 393
[42] = test system: SF-268
[43] = test system: SF-295
[44] = test system: SF-539
[45] = test system: SK-MEL-28
[46] = test system: SK-MEL-2
[47] = test system: SK-MEL-5
[48] = test system: SK-OV-3
[49] = test system: SN12C
[50] = test system: SNB-19
[51] = test system: SNB-75
[52] = test system: SR
[53] = test system: SW-620
[54] = test system: T47D
[55] = test system: TK-10
[56] = test system: U-251
[57] = test system: UACC-257
[58] = test system: UACC-62
[59] = test system: UO-31

`C/C(=C\COc1ccc2ccc(=O)oc2c1)CCC(=O)C(C)(C)O` was tested, and the GI50 [1] was 18.3 µM (inactive), the GI50 [2] was 24 µM (inactive) and the GI50 [3] was 26.7 µM (inactive). For the same molecule, the GI50 [4] was 31.3 µM (inactive), the GI50 [5] was 18.1 µM (inactive) and the GI50 [6] was 29.2 µM (inactive). The GI50 [7] was 16.4 µM (inactive), the GI50 [8] was 20.7 µM (inactive) and the GI50 [9] was 32.1 µM (inactive). For the same molecule, the GI50 [10] was 34 µM (inactive), the GI50 [11] was 19.9 µM (inactive) and the GI50 [12] was 15.6 µM (inactive). The GI50 [13] was 17.1 µM, the GI50 [14] was 15.2 µM (inactive) and the GI50 [15] was 44 µM (inactive). For the same molecule, the GI50 [16] was 26.4 µM (inactive), the GI50 [17] was 23.2 µM (inactive) and the GI50 [18] was 26.4 µM (inactive). For the same molecule, the GI50 [19] was 35.1 µM (inactive), the GI50 [20] was 16.2 µM (inactive) and the GI50 [21] was 18.5 µM (inactive). For the same molecule, the GI50 [22] was 13.8 µM (inactive), the GI50 [23] was 22 µM (inactive) and the GI50 [24] was 19.1 µM (inactive). For the same molecule, the GI50 [25] was 44 µM (inactive), the GI50 [26] was 21.4 µM (inactive) and the GI50 [27] was 25.6 µM (inactive). The GI50 [28] was 22.9 µM (inactive), the GI50 [29] was 44.9 µM (inactive) and the GI50 [30] was 26.5 µM (inactive). For the same molecule, the GI50 [31] was 33 µM (inactive), the GI50 [32] was 31.8 µM (inactive) and the GI50 [33] was 19.4 µM (inactive). The GI50 [34] was 27.9 µM (inactive), the GI50 [35] was 17.9 µM (inactive) and the GI50 [36] was 51.9 µM (inactive). For the same molecule, the GI50 [37] was 40.8 µM (inactive), the GI50 [38] was 23.3 µM (inactive) and the GI50 [39] was 53.5 µM (inactive). The GI50 [40] was 17 µM (inactive), the GI50 [41] was 14.4 µM (inactive) and the GI50 [42] was 41.8 µM (inactive). For the same molecule, the GI50 [43] was 38.4 µM (inactive), the GI50 [44] was 21 µM (inactive) and the GI50 [45] was 39.9 µM (inactive). For the same molecule, the GI50 [46] was 39.1 µM (inactive), the GI50 [47] was 16.5 µM (inactive) and the GI50 [48] was 36 µM (inactive). The GI50 [49] was 24.2 µM (inactive), the GI50 [50] was 32.7 µM (inactive) and the GI50 [51] was 68.1 µM (inactive). The GI50 [52] was 15.3 µM (inactive), the GI50 [53] was 19.5 µM (inactive) and the GI50 [54] was 29.9 µM (inactive). For the same molecule, the GI50 [55] was 39.3 µM (inactive), the GI50 [56] was 19.8 µM (inactive) and the GI50 [57] was 28 µM (inactive). The GI50 [58] was 18.3 µM (inactive) and the GI50 [59] was 28.4 µM (inactive).
For `Oc1nc2cc(Cl)ccc2nc1/C(=N\Nc1ccccc1)C(O)c1ccc2c(c1)OCO2` (stereo not drawn), the GI50 [1] was > 100 µM (inactive), the GI50 [2] was > 100 µM (inactive) and the GI50 [3] was > 100 µM (inactive). The GI50 [4] was > 100 µM (inactive), the GI50 [5] was > 100 µM (inactive) and the GI50 [6] was > 100 µM (inactive). For the same molecule, the GI50 [7] was > 100 µM (inactive), the GI50 [8] was > 100 µM (inactive) and the GI50 [9] was > 100 µM (inactive). The GI50 [10] was > 100 µM (inactive), the GI50 [11] was > 100 µM (inactive) and the GI50 [12] was > 100 µM (inactive). The GI50 [13] was over 100 µM, the GI50 [14] was > 100 µM (inactive) and the GI50 [15] was > 100 µM (inactive). For the same molecule, the GI50 [16] was > 100 µM (inactive), the GI50 [17] was > 100 µM (inactive) and the GI50 [18] was > 100 µM (inactive). The GI50 [19] was > 100 µM (inactive), the GI50 [20] was > 100 µM (inactive) and the GI50 [21] was > 100 µM (inactive). The GI50 [22] was > 100 µM (inactive), the GI50 [23] was > 100 µM (inactive) and the GI50 [24] was > 100 µM (inactive). For the same molecule, the GI50 [25] was > 100 µM (inactive), the GI50 [26] was > 100 µM (inactive) and the GI50 [27] was > 100 µM (inactive). For the same molecule, the GI50 [28] was > 100 µM (inactive), the GI50 [29] was > 100 µM (inactive) and the GI50 [30] was > 100 µM (inactive). The GI50 [31] was > 100 µM (inactive), the GI50 [32] was > 100 µM (inactive) and the GI50 [33] was > 100 µM (inactive). For the same molecule, the GI50 [34] was > 100 µM (inactive), the GI50 [35] was > 100 µM (inactive) and the GI50 [36] was > 100 µM (inactive). The GI50 [37] was > 100 µM (inactive), the GI50 [38] was > 100 µM (inactive) and the GI50 [39] was > 100 µM (inactive). The GI50 [40] was > 100 µM (inactive), the GI50 [41] was > 100 µM (inactive) and the GI50 [42] was > 100 µM (inactive). For the same molecule, the GI50 [43] was > 100 µM (inactive), the GI50 [44] was > 100 µM (inactive) and the GI50 [45] was > 100 µM (inactive). For the same molecule, the GI50 [46] was > 100 µM (inactive), the GI50 [47] was > 100 µM (inactive) and the GI50 [48] was > 100 µM (inactive). For the same molecule, the GI50 [49] was > 100 µM (inactive), the GI50 [50] was > 100 µM (inactive) and the GI50 [51] was > 100 µM (inactive). The GI50 [52] was > 100 µM (inactive), the GI50 [53] was > 100 µM (inactive) and the GI50 [54] was 72.8 µM (inactive). The GI50 [55] was > 100 µM (inactive), the GI50 [56] was > 100 µM (inactive) and the GI50 [57] was > 100 µM (inactive). For the same molecule, the GI50 [58] was > 100 µM (inactive) and the GI50 [59] was > 100 µM (inactive).
